From US12351556B2, “Pyridin-2(1H)one derivatives, their preparation and their use for the treatment of pain” (INSTITUT NATIONAL DE LA SANTE ET DE LA RECHERCHE MEDICALE …, priority 2019, dated 2025)
Entries after “also recorded” stand apart in the source; their conditions may differ.

System: inflammatory MA (face CFA model)
Test: Face Complete Freund's Adjuvant (CFA) model of inflammatory mechanical allodynia
Assay type: in vivo
Settings: rat
Description: FIG. 1 illustrates the results obtained by the intracisternal application of compounds 19-24, 66-72 and 74-82. These compounds prevent face MA in a rat model of inflammatory pain (Complete Freund's Adjuvant (CFA), n=4-6 rats for each compound). For this assay, compounds (5 μL at 100 μM) or control vehicle were intra-cisternally administred 30 min before CFA injection.
Face Complete Freund's Adjuvant (CFA) Model.
CFA (Becton Dickinson) was dissolved in saline solution containing Tween 80 and paraffin oil and conserved at 4° C. For the behavioral tests, animals were briefly (<2 min) anesthetized using a mask with 2% isoflurane and received a subcutaneous injection of 25 μL of CFA (2.5 mg/kg) solution into the right vibrissa pad using a 27 Ga needle coupled to a 25 μL Hamilton syringe, as described previously. After injection, animals were awakened from anesthesia and placed in the behavioral experimental room, followed by a 120 min mechanical testing period.
Intracisternal Injection:
For investigating the effects of synthetized compounds upon mechanical allodynia, animals were briefly (<2 min) anesthetized using a mask with 2% isoflurane and received an intracisternal injection of 5 μL of compound (100 μM) or vehicle alone (saline+1% DMSO) using a 10 μL Hamilton syringe. After recovery (<2 min), rats were placed in an observation field (0.6×0.6 m square) under red light for a period test. 6-g von Frey filament was gently applied every 15 or 30 min onto the orofacial region by a first experimenter. The behavioral responses were observed and quantified by a second experimenter (see below).
Behavioral Responses to Normally Innocuous (6-g Von Frey Filament) Mechanical Stimulation.
The behavioral responses procedure was previously developed by Vos et al. 1994. A rat's response to mechanical stimulation consisted of one or more of the following elements: (1) detection, rat turn head toward stimulus; (2) withdrawal reaction, rat pull paw away or turn head away or pull it briskly backward when stimulation is applied (a withdrawal reaction is assumed to include a detection element preceding the head withdrawal and therefore consists of two responses elements); (3) escape/attack, rats avoid further contact with the stimulus, either passively by moving their bodies away from the stimulus, or actively by attacking the tip of the […]; (4) asymmetric grooming, rats display an uninterrupted series of at least three wash strokes directed to the stimulated area.
The in vivo efficacy of some compounds was evaluated on a rat model of inflammatory MA (face CFA model; Alba-Delgado et al J. Neurosci. 2018, 38, 10489-10504) (FIG. 1). After receiving a subcutaneous injection of 25 μL of CFA (2.5 mg/kg) into the right vibrissa pad, rats develop a MA that lasts days. […] In this model of inflammatory MA, MA was suppressed in compound 69 treated rats, in comparison to animals treated with vehicle (FIG. 2A).

Q: For `O=c1[nH]cc(Nc2ccccc2)cc1-c1ccccc1Br` [Compound 69, 3-(2-Bromophenyl)-5-(phenylamino)pyridin-2(1H)-one], which “prevention of inflammatory MA (allodynic score), compared with skepinone” value (intracisternal 5 μL at 10 μM or 100 μM, 30 min before CFA, skepinone 60 μg/rat) is on record?
A: completely suppressed; also recorded: much more potent than skepinone

Q: What about the “prevention of inflammatory MA (allodynic score, 6-g von Frey filament)” value (intracisternal 5 μL at 100 μM, 30 min before CFA) of the same compound?
A: most active; also recorded: high activities; also recorded: potent preventing effect; also recorded: completely suppressed

Q: And the “inhibition of inflammatory MA” value (intracisternal 5 μL at 100 μM, 30 min before CFA injection)?
A: 99%
